In patent US11701355B2, “Levosimendan for treating pulmonary hypertension with heart failure with preserved ejection fraction (PH-HFpEF)” (Tenax Therapeutics, Inc., priority 2019, dated 2023):
“And” between values parts separate entries of the source, which are not always exact repeats. Equal entries are not always repeated.

How the values were obtained:
[1] = tested on: phosphodiesterase-3 (PDE3); details: in vitro; cited from earlier work
[2] = tested on: PH-HFpEF patients; assay: HELP Study open-label lead-in phase: 24-hour levosimendan infusion, right heart catheterization at rest and 25 watt exercise; type: in vivo, human
From the text: Enrolled PH-HFpEF subjects receive a lead-in 24-hour levosimendan infusion to determine their hemodynamic response and eligibility for the double-blind phase of the study. A total of 36 “responders” are randomized in the double-blind, placebo-controlled phase. “Responders” are identified as those subjects with a ≥4 mmHg reduction in PCWP during bicycle exercise (25 watts) and no more than a 10% decrease in cardiac index between the baseline measurements and repeated measurements following the initial infusion.
Study drug is administered via i.v. infusion over 24 hours weekly through Week 5 via a PICC line. Infusions (Week 2-5) are done in the subject's home by a study nurse. Patients return to the study site for a visit between the Week 3 and Week 4 infusions for assessment of subject safety/response and need for dose adjustment. Each subject is to return on Week 6 for assessment of efficacy and safety on study drug. A right heart catheter will be inserted to obtain hemodynamic measurements at rest and exercise at baseline, the following day after the lead-in 24-hour infusion, and during Week 6.
During the Lead-in phase, levosimendan, supplied as a concentrated solution (2.5 mg/mL), is mixed with diluent and administered intravenously at 0.10 μg/kg/min for 24 hours +/−30 min.
Visits during the Lead-In phase of the trial require a subject to be hospitalized for the entire infusion period, which at a minimum will last 24 hours. Once the infusion is complete, hemodynamic measurements are collected to ensure subject eligibility. Visits for Week 2 through Week 6 are calculated based on the date of the Lead-in infusion.
During the Lead-in Infusion (Day 0) the following procedures are performed: Measure vital signs (BP, PR, respiratory rate, temperature), venous sheath placement for right heart catheterization (The sheath will remain following the baseline study, and the patient is hospitalized where they receive the 24-hour levosimendan infusion (preferably through the venous sheath). The sheath is then used for access for the right heart catheterization study following the 24-hour levosimendan infusion, and then removed), right heart catheterization measurements: baseline (prior to levosimendan infusion) and post 24-hour infusion to establish qualifying baseline hemodynamics at rest and exercise and to establish qualifying response to levosimendan during exercise, assess adverse events, assess concomitant medications and/or procedures, pharmacokinetic sampling (to be taken at the end of infusion: 24+/−2 hours), genotyping sampling (to be taken at the end of infusion: 24+/−2 hours). […] A PICC line is placed in patients that meet eligibility criteria and who are randomized into the Double-Blind phase of the study.

[3] = tested on: PH-HFpEF patients; assay: Open-label extension (rollover) study: six-minute walk distance and Likert quality of life; type: in vivo, human
Method: This is an open-label rollover study to allow patients to continue levosimendan treatment if the patient has tolerated treatment in the HELP clinical study seen in Example 1.
Study drug concentrated solution (2.5 mg/mL), levosimendan, is mixed with diluent and administered as weekly infusions at 0.075 μg/kg/min for 24 hrs. Patients may have a dose escalation at Weeks 3 at a rate of 0.10 μg/kg/min for 24 hours, unless there has been a meaningful change in blood pressure or heart rate or other prohibitive rationale.
Visits at Weeks 3, 6, 12, 24, 48 and Follow-Up Visit (at termination) are performed within 72 hours of the scheduled weekly visit. These visits are performed at the investigator's office. The Follow-Up Visit (at termination) is calculated as the earlier of two years from the subject's date of entry into this extension study or as soon as possible after study discontinuation, but within 1 week. During this visit, the following procedures are performed: Vital signs; body weight (Week 3 only); 6MWT; Quality of Life assessment; NYHA Functional Class; Physician Assessment; assess adverse events, and concomitant medications and/or procedures.

[4] = average of 30 patients, 25 watts exercise
[5] = average of 30 patients, rest legs down
[6] = first 30 randomized patients, 25 watts exercise
[7] = first 30 randomized patients, rest
[8] = individual patients, after 24-hour lead-in infusion, 25 watts exercise
[9] = individual patients, after 24-hour lead-in infusion, rest legs down
[10] = individual patients, post vs pre, 25 watts exercise
[11] = individual patients, post vs pre, rest legs down

## C[C@@H]1CC(=O)NN=C1c1ccc(NN=C(C#N)C#N)cc1 [levosimendan, Levosimendan]
[1]
  PDE3/PDE4 inhibition ratio: 10,000
[2]; acute (24 hours) open-label levosimendan, n=44
  patients who exhibited a ≥4 mmHg decrease of PCWP: 85%
[2]; [4]
  Exercise CO Change Avg: 0.6 L/min
  PCWP Exercise Change Avg: −7.53 mmHg
  RAP (Exercise) Change Avg: −4.97 mmHg
  mPAP Exercise Change Avg: −5.1 mmHg
[2]; [5]
  PCWP-Rest (down) Change Avg: −5.800 mmHg
  RAP (Rest-down) Change Avg: −4.83 mmHg
  Rest (down) CO Change Avg: 0.33 L/min
  mPAP Rest (down) Change Avg: −5.4 mmHg
[2]; [6]
  increase of cardiac output during 25 watts of exercise, average: 0.60 L/min
  reduction of mean pulmonary arterial pressure during 25 watts of exercise, average: 5.1 mmHg
  reduction of pulmonary capillary wedge pressure during 25 watts of exercise, average: 7.53 mmHg
  reduction of right atrial pressure during 25 watts of exercise, average: 4.97 mmHg
[2]; [7]
  increase of cardiac output during rest, average: 0.33 L/min
  reduction of mean pulmonary arterial pressure during rest, average: 5.4 mmHg
  reduction of pulmonary capillary wedge pressure during rest, average: 5.8 mmHg
  reduction of right atrial pressure during rest, average: 4.83 mmHg
[2]; first 30 randomized patients, rest, baseline 23.4
  pulmonary capillary wedge pressure during rest after levosimendan, average: 17.6 mmHg
[2]; first 30 randomized patients, baseline 5.1
  cardiac output during rest after levosimendan, average: 5.5 L/min
[2]; first 30 randomized patients, baseline 6.7
  cardiac output during 25 watts of exercise after levosimendan, average: 7.4 L/min
[2]; first 30 randomized patients, baseline 16.2
  right atrial pressure during rest after levosimendan, average: 11.3 mmHg
[2]; first 30 randomized patients, baseline 27.9
  right atrial pressure during 25 watts of exercise after levosimendan, average: 23.0 mmHg
[2]; first 30 randomized patients, baseline 33.2
  pulmonary capillary wedge pressure during 25 watts of exercise after levosimendan, average: 25.7 mmHg
[2]; first 30 randomized patients, baseline 42.4
  mean pulmonary arterial pressure during rest after levosimendan, average: 37.0 mmHg
[2]; first 30 randomized patients, baseline 58.3
  mean pulmonary arterial pressure during 25 watts of exercise after levosimendan, average: 53.3 mmHg
[2]; [8]
  Exercise CO Post: 3.55 l/min and 3.25 l/min and 5.5 l/min and 5.05 l/min and 9.1 l/min (2×) and 4.68 l/min and 5.725 l/min and 5.9 l/min and 9 l/min and 7.65 l/min and 11.3 l/min and 7.9 l/min and 7.1 l/min and 12.8 l/min and 5.2 l/min and 8.0 l/min and 10.5 l/min and 4.2 l/min and 13.9 l/min and 7.2 l/min and 10.6 l/min and 11.1 l/min and 5.4 l/min and 6.5 l/min (2×) and 4.23 l/min and 6.93 l/min and 6.05 l/min and 7.7 l/min
  PCWP Exercise Post: 27 mmHg and 33 mmHg (2×) and 23 mmHg (2×) and 42 mmHg and 35 mmHg and 20 mmHg (2×) and 15 mmHg (2×) and 31 mmHg (2×) and 18 mmHg (4×) and 28 mmHg (4×) and 30 mmHg and 22 mmHg and 24 mmHg and 19 mmHg (2×) and 25 mmHg and 29 mmHg and 34 mmHg and 37 mmHg
  RAP (Exercise) Post: 34 mmHg and 17 mmHg (2×) and 10 mmHg and 20 mmHg (4×) and 16 mmHg (3×) and 24 mmHg and 36 mmHg and 18 mmHg and 12 mmHg (3×) and 22 mmHg and 29 mmHg (2×) and 25 mmHg (3×) and 28 mmHg (2×) and 19 mmHg and 38 mmHg (2×) and 37 mmHg and 26 mmHg
  mPAP Exercise Post: 52 mmHg (4×) and 47 mmHg (3×) and 67 mmHg and 48 mmHg and 40 mmHg and 80 mmHg and 57 mmHg and 38 mmHg (3×) and 35 mmHg and 50 mmHg and 55 mmHg and 51 mmHg (2×) and 58 mmHg and 27 mmHg and 60 mmHg and 66 mmHg and 36 mmHg and 81 mmHg and 68 mmHg (2×) and 75 mmHg and 62 mmHg
[2]; [9]
  RAP (Rest-down) Post: 17 mmHg and 5 mmHg and 4 mmHg and 12 mmHg (6×) and 7 mmHg and 18 mmHg (2×) and 3 mmHg and 8 mmHg (2×) and 9 mmHg (2×) and 13 mmHg (2×) and 10 mmHg (3×) and 11 mmHg (2×) and 15 mmHg (2×) and 1 mmHg and 14 mmHg and 19 mmHg and 20 mmHg
  Rest (down) CO Post-Levo: 3.0 l/min and 3.2 l/min and 4.5 l/min and 3.8 l/min (2×) and 6.9 l/min and 6.2 l/min and 4.2 l/min and 5.2 l/min and 6.5 l/min (2×) and 5.3 l/min (3×) and 5.6 l/min and 7.6 l/min and 4.1 l/min and 6.0 l/min and 8.6 l/min and 5.9 l/min and 4.3 l/min and 6.4 l/min and 4.0 l/min and 11.0 l/min and 4.7 l/min and 4.4 l/min and 3.9 l/min and 5.4 l/min and 5.8 l/min and 7.0 l/min
  mPAP Rest (down) Post-Levo: 45 mmHg and 27 mmHg and 35 mmHg (2×) and 25 mmHg and 21 mmHg (2×) and 65 mmHg and 38 mmHg and 28 mmHg (2×) and 37 mmHg (2×) and 30 mmHg (2×) and 42 mmHg and 41 mmHg and 26 mmHg (2×) and 46 mmHg and 24 mmHg (2×) and 29 mmHg and 34 mmHg and 32 mmHg and 62 mmHg and 57 mmHg (2×) and 59 mmHg and 49 mmHg
[2]; individual patients, n=30 responders, after 24-hour lead-in infusion, rest legs down
  PCWP-Rest (down) Post-Levo: 17 mmHg (6×) and 19 mmHg (2×) and 12 mmHg (2×) and 21 mmHg (3×) and 18 mmHg and 23 mmHg (2×) and 14 mmHg (3×) and 16 mmHg (2×) and 29 mmHg and 8 mmHg (2×) and 22 mmHg and 20 mmHg (2×) and 15 mmHg and 13 mmHg and 27 mmHg
[2]; individual patients, post vs pre levosimendan lead-in infusion, rest legs down
  PCWP-Rest (down) Change: −3 mmHg (5×) and −8 mmHg and −11 mmHg (2×) and 1 mmHg and −12 mmHg (2×) and 3 mmHg and −6 mmHg (2×) and −18 mmHg and −13 mmHg (2×) and −2 mmHg (3×) and −5 mmHg (2×) and 2 mmHg and 0 mmHg and −10 mmHg and −9 mmHg and −14 mmHg and −1 mmHg (2×) and −4 mmHg
[2]; [10]
  Exercise CO Change: 0.4 l/min (2×) and 0.0 l/min (2×) and 0.8 l/min (3×) and −0.3 l/min (2×) and −0.2 l/min (2×) and 0.3 l/min and 1.7 l/min (2×) and 0.2 l/min (2×) and 1.8 l/min (2×) and 1.9 l/min and −1.7 l/min and 4.8 l/min and 1.5 l/min and 0.1 l/min and −0.5 l/min (2×) and −1.0 l/min and 0.9 l/min and 1.0 l/min and 1.4 l/min and 1.3 l/min
  PCWP Exercise Change: −8 mmHg (3×) and −7 mmHg (4×) and −13 mmHg and −5 mmHg (7×) and −10 mmHg and −4 mmHg (3×) and −22 mmHg and −14 mmHg (2×) and −6 mmHg (6×) and −9 mmHg (2×)
  RAP (Exercise) Change: −8 mmHg (5×) and −4 mmHg and −3 mmHg (3×) and −6 mmHg (2×) and −12 mmHg and −11 mmHg and 1 mmHg (3×) and −18 mmHg and −9 mmHg and −5 mmHg (2×) and −14 mmHg and −2 mmHg (3×) and 3 mmHg and 6 mmHg and 0 mmHg (2×) and −15 mmHg and −1 mmHg
  mPAP Exercise Change: −7 mmHg and −3 mmHg (4×) and −15 mmHg (2×) and −5 mmHg (2×) and 2 mmHg and −22 mmHg and −13 mmHg (2×) and 4 mmHg (2×) and −8 mmHg (2×) and −9 mmHg and 12 mmHg and −4 mmHg (2×) and −2 mmHg and 1 mmHg (3×) and 6 mmHg and −11 mmHg and −12 mmHg (2×) and −6 mmHg
[2]; [11]
  RAP (Rest-down) Change: −3 mmHg (3×) and −4 mmHg (5×) and 0 mmHg (3×) and −5 mmHg (6×) and 1 mmHg and −23 mmHg and −1 mmHg and −7 mmHg (3×) and −6 mmHg (2×) and −2 mmHg (2×) and −9 mmHg (2×) and −8 mmHg
  Rest (down) CO Change: 0.17 l/min and 0.23 l/min (2×) and 0.27 l/min and 0.43 l/min and 1.06 l/min (2×) and 0.05 l/min and 0.62 l/min and 1.40 l/min and −0.07 l/min and 0.67 l/min and 2.03 l/min and −0.97 l/min and 1.03 l/min and 1.60 l/min and 0.00 l/min and 0.20 l/min and −0.53 l/min (2×) and 0.07 l/min and −0.47 l/min and 0.13 l/min and −1.07 l/min and −1.87 l/min and −0.30 l/min and 0.85 l/min and 1.50 l/min and 1.20 l/min and 0.87 l/min
  mPAP Rest (down) Change: −5 mmHg (2×) and −8 mmHg (2×) and −11 mmHg (2×) and 1 mmHg and −10 mmHg (2×) and 5 mmHg (3×) and −2 mmHg (2×) and −22 mmHg and −12 mmHg (2×) and 2 mmHg (2×) and −9 mmHg (4×) and 3 mmHg and −6 mmHg and −4 mmHg and −13 mmHg and −14 mmHg and 6 mmHg and 0 mmHg
[3]; n=8
  increase of six-minute walk distance, average: 30 meters
  patients with increased overall sense of well-being (five-point Likert Scale): 7 out of 8
[3]; n=8, baseline 292
  six-minute walk distance after levosimendan, average: 322 meters
[3]; patients who improved
  improvement on the five-point Likert scale: 1-2 points
